Data published in patent publication US10040790B2, “Bicyclic heterocycles as FGFR inhibitors” (Incyte Corporation, priority 2013, dated 2018).

Columns and labels:
Format in all cases: biochemical
FGFR1 = FGFR1 (Homo sapiens (Human), UniProt P11362); experiment: FGFR Enzymatic Assay (FRET peptide phosphorylation), FGFR1; details: ATP 210 μM, enzyme 0.02 nM
Procedure: (§1) The inhibitor potency of the exemplified compounds was measured in an enzyme assay that measures peptide phosphorylation using FRET measurements to detect product formation. Inhibitors were serially diluted in DMSO and a volume of 0.5 μL was transferred to the wells of a 384-well plate. For FGFR3, a 10 μL volume of FGFR3 enzyme (Millipore) diluted in assay buffer (50 mM HEPES, 10 mM MgCl2, 1 mM EGTA, 0.01% Tween-20, 5 mM DTT, pH 7.5) was added to the plate and pre-incubated for 5-10 minutes. Appropriate controls (enzyme blank and enzyme with no inhibitor) were included on the plate. The assay was initiated by the addition of a 10 μL solution containing biotinylated EQEDEPEGDYFEWLE peptide substrate (SEQ ID NO: 1) and ATP (final concentrations of 500 nM and 140 μM respectively) in assay buffer to the wells. The plate was incubated at 25° C. for 1 hr. The reactions were ended with the addition of 10 μL/well of quench solution (50 mM Tris, 150 mM NaCl, 0.5 mg/mL BSA, pH 7.8; 30 mM EDTA with Perkin Elmer Lance Reagents at 3.75 nM Eu-antibody PY20 and 180 nM APC-Streptavidin). The plate was allowed to equilibrate for ˜1 hr before scanning the wells on a PheraStar plate reader (BMG Labtech).
(§2) FGFR1 and FGFR2 were measured under equivalent conditions with the following changes in enzyme and ATP concentrations: FGFR1, 0.02 nM and 210 μM, respectively and FGFR2, 0.01 nM and 100 μM, respectively. The enzymes were purchased from Millipore or Invitrogen.
(§3) GraphPad prism3 was used to analyze the data. The IC50 values were derived by fitting the data to the equation for a sigmoidal dose-response with a variable slope. Y=Bottom+(Top−Bottom)/(1+10^((Log IC50−X)*HillSlope)) where X is the logarithm of concentration and Y is the response.

FGFR2 = FGFR2 (Homo sapiens (Human), UniProt P21802); experiment: FGFR Enzymatic Assay (FRET peptide phosphorylation), FGFR2; details: ATP 100 μM, enzyme 0.01 nM
Sequence of FGFR2 (P21802 22-821): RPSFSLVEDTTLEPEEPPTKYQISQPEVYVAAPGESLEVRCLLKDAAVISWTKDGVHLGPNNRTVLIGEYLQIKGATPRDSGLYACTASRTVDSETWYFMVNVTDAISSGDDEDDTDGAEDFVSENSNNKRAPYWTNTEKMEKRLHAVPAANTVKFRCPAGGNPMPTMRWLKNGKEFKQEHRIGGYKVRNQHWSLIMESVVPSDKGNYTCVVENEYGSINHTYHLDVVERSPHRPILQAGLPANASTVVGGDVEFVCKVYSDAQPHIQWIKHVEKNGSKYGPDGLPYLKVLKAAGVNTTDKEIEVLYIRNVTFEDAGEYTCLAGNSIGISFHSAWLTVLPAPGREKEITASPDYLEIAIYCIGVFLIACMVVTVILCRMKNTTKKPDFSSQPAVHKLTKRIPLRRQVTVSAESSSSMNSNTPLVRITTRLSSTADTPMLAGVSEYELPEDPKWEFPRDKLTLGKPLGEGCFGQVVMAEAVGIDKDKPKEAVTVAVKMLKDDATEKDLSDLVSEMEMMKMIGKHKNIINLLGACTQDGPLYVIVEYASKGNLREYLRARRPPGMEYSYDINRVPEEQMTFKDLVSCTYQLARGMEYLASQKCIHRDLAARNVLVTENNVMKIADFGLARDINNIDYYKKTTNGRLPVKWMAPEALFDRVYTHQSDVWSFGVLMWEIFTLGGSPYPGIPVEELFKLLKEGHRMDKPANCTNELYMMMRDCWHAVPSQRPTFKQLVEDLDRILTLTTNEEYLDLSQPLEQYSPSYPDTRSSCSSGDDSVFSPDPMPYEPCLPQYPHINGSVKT
Procedure: as §1, §2, §3

FGFR3 = FGFR3 (Homo sapiens (Human), UniProt P22607); experiment: FGFR Enzymatic Assay (FRET peptide phosphorylation), FGFR3; details: ATP 140 μM
Sequence of FGFR3 (P22607 23-806): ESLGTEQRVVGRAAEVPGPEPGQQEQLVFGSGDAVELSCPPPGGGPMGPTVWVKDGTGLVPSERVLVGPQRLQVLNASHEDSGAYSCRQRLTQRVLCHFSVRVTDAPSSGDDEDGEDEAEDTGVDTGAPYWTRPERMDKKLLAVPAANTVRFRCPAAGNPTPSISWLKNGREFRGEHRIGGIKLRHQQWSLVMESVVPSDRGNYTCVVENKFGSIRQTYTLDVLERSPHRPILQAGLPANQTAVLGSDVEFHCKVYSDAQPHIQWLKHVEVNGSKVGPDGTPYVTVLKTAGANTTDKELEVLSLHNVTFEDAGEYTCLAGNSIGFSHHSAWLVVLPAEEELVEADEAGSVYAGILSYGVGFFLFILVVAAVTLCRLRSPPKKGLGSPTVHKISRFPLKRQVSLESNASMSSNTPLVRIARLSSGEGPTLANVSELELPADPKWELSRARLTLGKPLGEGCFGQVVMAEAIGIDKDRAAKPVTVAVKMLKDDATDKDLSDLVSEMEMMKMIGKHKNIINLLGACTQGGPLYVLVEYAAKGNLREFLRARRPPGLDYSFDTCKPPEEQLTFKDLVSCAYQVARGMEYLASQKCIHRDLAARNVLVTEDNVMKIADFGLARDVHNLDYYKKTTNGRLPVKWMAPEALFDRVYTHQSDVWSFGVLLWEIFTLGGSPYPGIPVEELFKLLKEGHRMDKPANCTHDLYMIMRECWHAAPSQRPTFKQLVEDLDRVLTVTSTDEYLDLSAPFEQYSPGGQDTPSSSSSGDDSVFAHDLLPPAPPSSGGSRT
Procedure: as §1, §3

Sequence of FGFR1 (P11362 22-822): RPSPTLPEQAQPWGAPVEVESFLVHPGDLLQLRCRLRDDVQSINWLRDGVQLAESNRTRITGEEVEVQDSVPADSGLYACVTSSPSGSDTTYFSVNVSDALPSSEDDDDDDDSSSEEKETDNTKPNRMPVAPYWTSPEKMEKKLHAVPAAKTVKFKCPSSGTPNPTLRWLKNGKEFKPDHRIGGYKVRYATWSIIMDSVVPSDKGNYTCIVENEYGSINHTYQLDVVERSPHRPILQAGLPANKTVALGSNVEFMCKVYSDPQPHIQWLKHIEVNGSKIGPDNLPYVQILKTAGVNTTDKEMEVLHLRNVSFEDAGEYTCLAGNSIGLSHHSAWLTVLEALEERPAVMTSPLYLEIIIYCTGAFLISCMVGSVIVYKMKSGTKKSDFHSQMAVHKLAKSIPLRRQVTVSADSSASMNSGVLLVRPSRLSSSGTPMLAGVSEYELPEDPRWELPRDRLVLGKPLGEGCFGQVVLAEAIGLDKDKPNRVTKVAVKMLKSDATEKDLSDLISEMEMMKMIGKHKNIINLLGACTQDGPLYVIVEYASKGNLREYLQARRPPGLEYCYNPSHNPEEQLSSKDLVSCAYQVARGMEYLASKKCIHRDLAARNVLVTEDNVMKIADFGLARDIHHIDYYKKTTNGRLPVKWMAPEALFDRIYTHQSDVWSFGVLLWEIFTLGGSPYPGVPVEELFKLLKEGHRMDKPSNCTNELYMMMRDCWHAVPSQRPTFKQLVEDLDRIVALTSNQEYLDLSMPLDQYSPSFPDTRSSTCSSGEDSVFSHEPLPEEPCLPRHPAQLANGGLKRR

| Structure (SMILES) | IC50 (FGFR1) | IC50 (FGFR2) | IC50 (FGFR3) |
| --- | --- | --- | --- |
| COc1cc(OC)c(F)c(N2Cc3cnc(NC4CCN(C)CC4)cc3C3(CC3)C2=O)c1F [Example 44, 2′-(2,6-difluoro-3,5-dimethoxyphenyl)-6′-(1-methylpiperidin-4-ylamino)-1′H-spiro[cyclopropane-1,4′-[2,7]naphthyridin]-3′(2′H)-one] | < 100 nM | < 100 nM | < 100 nM |
| COc1cc(OC)c(F)c(N2Cc3cnc(N)c(-c4cnn(CCO)c4)c3N(C)C2=O)c1F [Example 10, 7-amino-3-(2,6-difluoro-3,5-dimethoxyphenyl)-8-[1-(2-hydroxyethyl)-1H-pyrazol-4-yl]-1-methyl-3,4-dihydropyrido[4,3-d]pyrimidin-2(1H)-one] | < 100 nM | < 100 nM | < 100 nM |
| COCCOc1c(N)ncc2c1N(C)C(=O)N(c1c(F)c(OC)cc(OC)c1F)C2 [Example 5, 7-amino-3-(2,6-difluoro-3,5-dimethoxyphenyl)-8-(2-methoxyethoxy)-1-methyl-3,4-dihydro-pyrido[4,3-d]pyrimidin-2(1H)-one] | < 100 nM | < 100 nM | < 100 nM |

Continued, values first:

| IC50 (FGFR1) | IC50 (FGFR2) | IC50 (FGFR3) | Structure (SMILES) |
| --- | --- | --- | --- |
| < 100 nM | < 100 nM | < 100 nM | COc1cc(OC)c(F)c(N2Cc3cnc(N)c(C)c3N(C)C2=O)c1F [Example 1, 7-amino-3-(2,6-difluoro-3,5-dimethoxyphenyl)-1,8-dimethyl-3,4-dihydropyrido[4,3-d]pyrimidin-2(1H)-one] |
| < 100 nM | < 100 nM | < 100 nM | COc1cc(OC)c(F)c(N2Cc3cnc(N[C@H](C)c4ccccc4)cc3C3(CC3)C2=O)c1F [Example 38, (R)-2′-(2,6-difluoro-3,5-dimethoxyphenyl)-6′-(1-phenylethylamino)-1′H-spiro[cyclopropane-1,4′-[2,7]naphthyridin]-3′(2′H)-one] |
| < 100 nM | < 100 nM | < 100 nM | COc1cc(OC)c(F)c(N2Cc3cnc(NC4CCOCC4)cc3C3(CC3)C2=O)c1F [Example 26, 2′-(2,6-difluoro-3,5-dimethoxyphenyl)-6′-(tetrahydro-2H-pyran-4-ylamino)-1′,2′-dihydro-3′H-spiro[cyclopropane-1,4′-[2,7]naphthyridin]-3′-one] |
